Source: paper PMC10165273, “Itch receptor MRGPRX4 interacts with the receptor activity–modifying proteins” (The Journal of Biological Chemistry, 2023)
Several values for one entry are separate records, joined by “and”; a condition that tells them apart may be missing. Identical values can stand only once.

What was measured:
Type in all cases: cell-based
MRGPRX4 + RAMP1 = biological target: T1, MRGPRX4 + RAMP1 (Homo sapiens, UniProt Q96LA9); assay: IP1 accumulation, MRGPRX4 coexpressed with RAMP1; design: key to IP1 Basal / response to agonist, X4:ramp1.I:1 / response to agonist, X4:ramp1.I:2 / response to agonist, X4:ramp1.I:0.25 / response to agonist, X4:ramp1.I:0.5: % IP1; unstimulated mock = 0%, fully stimulated MRGPRX4 = 100%; conditions: Figure 4c-f, agonist 100µM, MRGPRX4 = 100
T1 construct: expressed in transfected cells; host or cells: HEK293T

MRGPRX4 + RAMP3 = biological target: T2, MRGPRX4 + RAMP3 (Homo sapiens, UniProt Q96LA9); assay: IP1 accumulation, MRGPRX4 coexpressed with RAMP3; design: key: % IP1; unstimulated mock = 0%, fully stimulated MRGPRX4 = 100%; conditions: Figure 4c-f; agonist 100µM; X4:ramp3 1:2; MRGPRX4 = 100
T2 construct: expressed in transfected cells; host or cells: HEK293T

MRGPRX4 + RAMP2 = biological target: T3, MRGPRX4 + RAMP2 (Homo sapiens, UniProt Q96LA9); assay: IP1 accumulation, MRGPRX4 coexpressed with RAMP2; design: key to response to agonist, X4:ramp2.I:2: % IP1: mock-transfected unstimulated = 0%, fully stimulated MRGPRX4 = 100%; key to IP1 Basal / response to agonist, X4:ramp2.I:0.25 / response to agonist, X4:ramp2.I:0.5 / response to agonist, X4:ramp2.I:1: % IP1; unstimulated mock = 0%, fully stimulated MRGPRX4 = 100%; conditions: Figure 4c-f, agonist 100µM, MRGPRX4 = 100
T3 construct: expressed in transfected cells; host or cells: HEK293T
T3 sequence (Q96LA9 whole entry): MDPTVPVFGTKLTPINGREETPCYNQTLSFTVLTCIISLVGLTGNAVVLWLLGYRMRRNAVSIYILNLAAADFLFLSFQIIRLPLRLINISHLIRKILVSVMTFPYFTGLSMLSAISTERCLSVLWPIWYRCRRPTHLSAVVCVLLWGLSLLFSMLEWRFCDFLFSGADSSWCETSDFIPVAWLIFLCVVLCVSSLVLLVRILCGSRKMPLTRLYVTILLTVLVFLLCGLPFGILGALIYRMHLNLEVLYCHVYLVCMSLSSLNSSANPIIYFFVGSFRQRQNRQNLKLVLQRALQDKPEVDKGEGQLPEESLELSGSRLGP

T1 sequence (Q96LA9 whole entry): as above
T2 sequence (Q96LA9 whole entry): as above

C[C@H](CCC(=O)NCCS(=O)(=O)O)[C@H]1CC[C@H]2[C@@H]3CC[C@@H]4C[C@H](O)CC[C@]4(C)[C@H]3C[C@H](O)[C@]12C [TDCA, Taurodeoxycholic acid]
response to agonist, X4:ramp1.I:0.25 (MRGPRX4 + RAMP1; X4:ramp1 1:0.25): 91.5401 and 91.7191 | response to agonist, X4:ramp1.I:0.5 (MRGPRX4 + RAMP1; X4:ramp1 1:0.5): 85.1903 and 91.5141 | response to agonist, X4:ramp1.I:1 (MRGPRX4 + RAMP1; X4:ramp1 1:1): 95.31 and 91.9832 | response to agonist, X4:ramp1.I:2 (MRGPRX4 + RAMP1; X4:ramp1 1:2): 89.0717 and 99.7164 | response to agonist, X4:ramp3.I:2 (MRGPRX4 + RAMP3): 51.7108 and 61.6065 | response to agonist, X4:ramp2.I:0.25 (MRGPRX4 + RAMP2; X4:ramp2 1:0.25): 76.6313 and 76.3781 | response to agonist, X4:ramp2.I:0.5 (MRGPRX4 + RAMP2; X4:ramp2 1:0.5): 59.1022 and 61.5718 | response to agonist, X4:ramp2.I:1 (MRGPRX4 + RAMP2; X4:ramp2 1:1): 39.1806 and 35.15 | response to agonist, X4:ramp2.I:2 (MRGPRX4 + RAMP2; X4:ramp2 1:2): 12.332 and 15.0971
